{
  "source": "patent US8541607B2",
  "about": "“Disulfide, sulfide, sulfoxide, and sulfone derivatives of cyclic sugars and uses thereof” (Lacer, S.A., priority 2003, dated 2013)",
  "key": {"[1]": {"test_system": "heart (AVP-induced coronary vasoconstriction)", "test": "In vivo protection against ischemia-reperfusion damage in the heart (arginine-vasopressin induced S-wave depression)", "details": "p.o.; for S-wave decrement: 1 h before AVP 0.3 U/kg, vehicle 46.2 ± 4.9", "procedure": "Experiments were performed according to the model previously described by Hirata Y at al (Journal of Cardiovascular Pharmacology, 1998, 31: 322-326)\nAfter a food fasting period of 6 hours, animals were divided into groups of at least 8 animals each. Doses of products were given by oral sounding 1 h before the ischemia induction. Animals were anaesthetized with pentobarbital (40 mg/kg, i.p.) and the standard limb lead II electrocardiogram was recorded to detect the S-wave depression. 0.3 U/kg arginine-vasopressin (AVP) (Sigma Chemicals, St Louis, Mo., USA) was injected into the carotid artery to induce vasoconstriction of small coronary arteries and increase in coronary resistance. In all the groups received AVP 60 min after, the test drug. In all groups, after AVP injection of 10 minutes ECG recording was performed.\nThe results are shown in table 16 and are expressed as S-wave decrements (μvolts)."}, "[2]": {"test_system": "Rats, left carotid artery thrombosis (FeCl3)", "test": "In vivo synergistic antithrombotic effect, FeCl3 carotid artery thrombosis, single drugs and combinations", "design": "species or system rat", "details": "Compound 12 22.3 mg/Kg, oral, acute the day of study", "procedure": "The method used is substantially the same as described by Kurz (Kurz K. D., at al., Thromb. Res. 1990, 60: 269-280) and modified by Feuerstein (Feuerstein G. Z., et al., Artherioscler, Thromb. Vasc. Biol. 1999, 19: 2554-25562). […]\nForty-five minutes after dosing administration, rats were anaesthetized with sodium pentobarbital (40 mg/kg, i.p.) and they were placed later dorsally on a heated (37° C.) surgical board.\nThe left carotid artery was isolated and a Parafilm M sheet (7×20 mm, American National Can) was placed under it. An electromagnetic sounding of flow (Transonic Systems Inc.) was placed on the artery to measure blood flow.\nSixty minutes after product administration, a paper patch saturated with FeCl3 solution (70%) was placed (and not removed for the whole duration of the experiment) on the left carotid artery downstream from the sounding of flow to initiate thrombosis. The blood flow was controlled during the 60 min later to the application of the patch in the artery.\nThe vessel was considered totally occluded by the thrombus formed when no blood flow was detected (0.0 ml/min). In this model, occlusive thrombus formation usually takes place within 15 to 20 minutes in non-treated animals.\nThe fractional product concept was used to identify synergy between the compounds. In accordance with this concept, if we consider the full protection of the animal as:\n[formula] where A is the rate of animals with thrombotic occlusion in treated group; and B is the rate of animals with thrombotic occlusion in the control group.\nFor two drugs that act of independent way:\n[formula] where A1 is the rate of animals with thrombotic occlusion in the treatment group A1; A2 is the rate of animals with thrombotic occlusion in the treatment group A2; and B is the rate of animals with thrombotic occlusion in the control group\nIf the protection obtained with the combination of the drugs is higher than the fractional inhibition for two compounds acting independently then synergism is considered to occur.\nThe results are shown in table 14 and are expressed as rate of animals with thrombotic occlusion in each group."}, "[3]": {"test_system": "apo E-deficient mouse (OLA129X C57/BL6J)", "test": "Atherogenesis in apo E-deficient mouse on standard diet", "type": "in vivo", "details": "5 mg/Kg/day, 12 weeks", "text": "Preventing and curative effect on atherogenesis of the compounds it is investigated in apo E-deficient mouse fed on standard diet model. Male and female apo E-deficient mouse (OLA129X C57/BL6J) of three months old were fed on standard diet. The control group included 8 males and 7 females mouse, while the treated group consist of 8 males and 7 females mouse. All the animals had similar cholesterol and body weight at the beginning of the experiment. Both the control and the treated groups were studied for 12 weeks. The treated group received 5 mg/Kg/day of the compound (12).\nPlasma lipid parameters (total cholesterol, HDL cholesterol and triglycerides) and oxidative stress (measured as 8-iso-prostaglandin F2α levels) were measured at predetermined intervals. After completion of the administration period, the thoracic aorta was isolated and stained to determine the area of the atherosclerotic injuries deposited in the internal wall of the blood vessel in according with the Red Oil method (Lillie, R. D., 1994, Stain Technology, vol. 19, pp 55)."}, "[4]": {"test_system": "platelet adhesion to HUVEC activated by LDLmm", "test": "Inhibition of platelet adhesion to HUVEC activated by LDLmm", "type": "cell-based, human", "details": "HUVEC activated by LDLmm (50 μg/ml); mean ± s.e.m.", "text": "The methods used in the assays to determine the effect of the compounds on platelet and monocyte adhesion to human endothelial cells are substantially the same as described in the following references: • Del Maschio A. et al., J Cell Biol 1996; 135: 497-510 • Bombeli T. et al., Blood 1999; 93: 3831-3838 • Colomé C. et al; Atherosclerosis 2000; 149: 295-302; and • Martin-Satue M. at al; British Journal of Cancer 1999; 80; 1169-1174\nThe adhesion of the U937-monocyte cells to confluent human microvasculature endothelial cells (HMEC-1) activated by means of TNF-α (50 ng/ml) and the platelets to human umbilical endothelial cells (HUVEC) were the methods used to determine the inhibitory effect of compounds on cellular adhesion. The adhesion of monocytes previously labeled with calcein-2M (Molecular Probes) to HMEC-1 activated by TNF-α, was assessed by determination of the associated-cell fluorescence. The adhesion of washed human platelets previously labeled with MoAb against CD36-FITC to activated-HUVEC (50 μg/ml of LDL minimally modified, LDLmm) was determined by Laser Scanning Cytometry (LSC, Olympus) determining the associated-cell fluorescence. Results are expressed as the percentage of inhibition respect to control (adhesion of the cells in the absence of compounds)."}},
  "data": [
    {"smiles": "CC(=O)S[C@H]1CO[C@H]2[C@@H]1OC[C@H]2O[N+](=O)[O-]", "note": "[(12), 2-acetylthio-isosorbide-5-mononitrate]", "values": [
      {"measurement": "Protection of S-wave decrement", "setting": "[1]; 20 mg/kg", "value": 52, "unit": "%"},
      {"measurement": "S-wave decrement", "setting": "[1]; 20 mg/kg", "value": "22.6 ± 5.9", "unit": "μV"},
      {"measurement": "Protection of S-wave decrement", "setting": "[1]; 100 mg/kg", "value": 81, "unit": "%"},
      {"measurement": "S-wave decrement", "setting": "[1]; 100 mg/kg", "value": "8.6 ± 2.8", "unit": "μV"},
      {"measurement": "% of animals protected", "setting": "[2]", "value": "(50%)"},
      {"measurement": "Rate of animals with thrombotic occlusion", "setting": "[2]; control 1", "value": 0.5},
      {"measurement": "levels of triglycerides in plasma (in words)", "setting": "[3]", "value": "decrease"},
      {"measurement": "oxidative stress (in words)", "setting": "[3]", "value": "decrease"},
      {"measurement": "HDL-cholesterol, Female", "setting": "[3]; female, control 0.4 ± 0.1, mean ± s.d.", "value": "0.48 ± 0.13", "unit": "mmol/L"},
      {"measurement": "Triglycerides, Female", "setting": "[3]; female, control 1.9 ± 0.6, mean ± s.d.", "value": "1.3 ± 0.2", "unit": "mmol/L"},
      {"measurement": "Total cholesterol, Female", "setting": "[3]; female, control 9.5 ± 2, mean ± s.d.", "value": "11.3 ± 1.5", "unit": "mmol/L"},
      {"measurement": "8-iso-prostaglandin F2α, Female", "setting": "[3]; female, oxidative stress, control 182 ± 19, mean ± s.d.", "value": "99 ± 7", "unit": "pg/mL"},
      {"measurement": "HDL-cholesterol, Male", "setting": "[3]; male, control 0.5 ± 0.15, mean ± s.d.", "value": "0.47 ± 0.15", "unit": "mmol/L"},
      {"measurement": "Triglycerides, Male", "setting": "[3]; male, control 2.6 ± 0.6, mean ± s.d.", "value": "1.5 ± 0.4", "unit": "mmol/L"},
      {"measurement": "Total cholesterol, Male", "setting": "[3]; male, control 14.3 ± 2, mean ± s.d.", "value": "18 ± 3", "unit": "mmol/L"},
      {"measurement": "8-iso-prostaglandin F2α, Male", "setting": "[3]; male, oxidative stress, control 273 ± 19, mean ± s.d.", "value": "101 ± 13", "unit": "pg/mL"},
      {"measurement": "% of inhibition to control, platelet adhesion", "setting": "[4]", "value": "87.5% ± 5.1%"}
    ]}
  ]
}
